One experiment deals with T1, human CD73 (Homo sapiens, UniProt P21589).
T1 construct: expressed in transfected cells
T1 sequence (P21589 27-549): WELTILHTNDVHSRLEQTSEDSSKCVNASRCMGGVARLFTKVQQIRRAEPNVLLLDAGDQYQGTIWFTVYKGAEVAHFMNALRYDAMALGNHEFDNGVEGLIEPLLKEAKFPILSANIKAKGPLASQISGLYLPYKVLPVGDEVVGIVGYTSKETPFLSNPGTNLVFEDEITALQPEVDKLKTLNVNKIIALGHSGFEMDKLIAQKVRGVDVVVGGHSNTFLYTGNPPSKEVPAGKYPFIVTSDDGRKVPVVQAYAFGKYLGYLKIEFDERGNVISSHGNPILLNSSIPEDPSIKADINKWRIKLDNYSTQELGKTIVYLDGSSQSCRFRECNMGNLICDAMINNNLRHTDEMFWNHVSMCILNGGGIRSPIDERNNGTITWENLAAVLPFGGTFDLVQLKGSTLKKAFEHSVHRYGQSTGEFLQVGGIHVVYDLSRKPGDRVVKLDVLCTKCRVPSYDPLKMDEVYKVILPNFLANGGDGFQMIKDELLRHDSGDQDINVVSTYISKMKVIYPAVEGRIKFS
The experiment in a line: Inhibitor activity against CD73 in cell based assay (CD73 expressing CHO-K1 cells). To be noted: CHO-K1 cells expressing human CD73, 150 μM AMP, 4 hours of incubation; read-out: CHO-K1 CELL VARIANT: CD73 IC50. The gist of the method: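 Stably transfected CHO-K1 cells expressing human CD73 (1×10^4/well) incubated 4 h with compound (8-point 1:3 titration, top 10 μM final, 0.2% DMSO) and 150 μM AMP. Residual AMP in supernatant measured by CellTiter-Glo luminescence with 1 μM ATP after 30 min at room temperature; IC50 by nonlinear regression of percent inhibition vs high/low controls.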

For experiment [1], the target named is T2, Human CD73 (amino acid residues 27-549) (Homo sapiens, UniProt P21589).
T2 construct: Human CD73 (amino acid residues 27-549); His tag (N); made in house; host or cells: E. coli
T2 sequence (P21589 27-549): T1 sequence (P21589 27-549)
Put plainly: CD73 enzymatic assay (luciferase-based indirect assay, CellTiter-Glo). Format: biochemical. To be noted: 0.4 nM CD73, 150 μM AMP, 1 hour at room temperature. The gist of the method:
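His-tagged human CD73 (27-549) from E. coli, 0.4 nM, with 150 μM AMP in 50 mM HEPES pH 7.4, 0.01% Tween 20; 1 h at room temperature. AMP remaining read by CellTiter-Glo 2.0 luminescence with 1 μM final ATP after 30 min. IC50 from nonlinear regression of % inhibition.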
In general terms: ATP-based viability assays read luminescence as a measure of living cells.

For orientation: IC50 means the concentration needed to halve the response being measured.

Molecules are shown by their SMILES.

Regarding `Cc1noc(C)c1S(=O)(=O)N[C@H]1CC[C@H](NC(=O)O[C@@H]2CCN(c3cn[nH]c(=O)c3Cl)C2)CC1` [P-0302, (R)-1-(5-chloro-6-oxo-1,6-dihydropyridazin-4-yl)pyrrolidin-3-yl ((1r,4R)-4-((3,5-dimethylisoxazole)-4-sulfonamido)cyclohexyl) carbamate], the IC50 (on human CD73; in experiment [1]) was 0.001 to 10 µM throughout.
Regarding `COCCS(=O)(=O)N[C@H]1CC[C@H](NC(=O)O[C@@H]2CCN(c3cn[nH]c(=O)c3Cl)C2)CC1` [P-0303, (R)-1-(5-chloro-6-oxo-1,6-dihydropyridazin-4-yl)pyrrolidin-3-yl ((1r,4R)-4-((2-methoxyethyl)sulfonamido)cyclohexyl)carbamate], the IC50 (on human CD73; in experiment [1]) was 0.001 to 10 µM throughout.
For the compound `O=C(N[C@H]1CC[C@H](NS(=O)(=O)CCC(F)(F)F)CC1)O[C@@H]1CCN(c2cn[nH]c(=O)c2Cl)C1` [P-0304, (R)-1-(5-chloro-6-oxo-1,6-dihydropyridazin-4-yl)pyrrolidin-3-yl ((1r,4R)-4-((3,3,3-trifluoropropyl)sulfonamido)cyclohexyl)carbamate], the IC50 (on human CD73; in experiment [1]) was 0.001 to 10 µM throughout.
As to `O=C(N[C@H]1CC[C@H](NS(=O)(=O)CC(F)(F)F)CC1)O[C@@H]1CCN(c2cn[nH]c(=O)c2Cl)C1` [P-0305, (R)-1-(5-chloro-6-oxo-1,6-dihydropyridazin-4-yl)pyrrolidin-3-yl ((1r,4R)-4-((2,2,2-trifluoroethyl)sulfonamido)cyclohexyl)carbamate], the IC50 (on human CD73; in experiment [1]) was 0.001 to 10 µM each time.
Turning to `O=C(N[C@H]1CC[C@H](NS(=O)(=O)Cc2ccccc2)CC1)O[C@@H]1CCN(c2cn[nH]c(=O)c2Cl)C1` [P-0306, (R)-1-(5-chloro-6-oxo-1,6-dihydropyridazin-4-yl)pyrrolidin-3-yl ((1r,4R)-4-((phenylmethyl)sulfonamido)cyclohexyl)carbamate], the IC50 (on human CD73; in experiment [1]) was 0.001 to 10 µM each time.
For the compound `N#CCS(=O)(=O)N[C@H]1CC[C@H](NC(=O)O[C@@H]2CCN(c3cn[nH]c(=O)c3Cl)C2)CC1` [P-0307, (R)-1-(5-chloro-6-oxo-1,6-dihydropyridazin-4-yl)pyrrolidin-3-yl ((1r,4R)-4-((cyanomethyl)sulfonamido)cyclohexyl)carbamate], the IC50 (at human CD73; in experiment [1]) was 0.001 to 10 µM in each case.
On to `C=CS(=O)(=O)N[C@H]1CC[C@H](NC(=O)O[C@@H]2CCN(c3cn[nH]c(=O)c3Cl)C2)CC1` [P-0308, (R)-1-(5-chloro-6-oxo-1,6-dihydropyridazin-4-yl)pyrrolidin-3-yl ((1r,4R)-4-(vinylsulfonamido)cyclohexyl) carbamate], for which the IC50 (at human CD73; in experiment [1]) was 0.001 to 10 µM in each case.
Consider `O=C(N[C@H]1CC[C@H](NS(=O)(=O)c2c[nH]cn2)CC1)O[C@@H]1CCN(c2cn[nH]c(=O)c2Cl)C1` [P-0309, (R)-1-(5-chloro-6-oxo-1,6-dihydropyridazin-4-yl)pyrrolidin-3-yl ((1r,4R)-4-(1H-imidazole-4-sulfonamido)cyclohexyl) carbamate], for which the IC50 (on human CD73; in experiment [1]) was 0.001 to 10 µM throughout.
Regarding `CN1CCN(S(=O)(=O)N[C@H]2CC[C@H](NC(=O)O[C@@H]3CCN(c4cn[nH]c(=O)c4Cl)C3)CC2)CC1` [P-0310, (R)-1-(5-chloro-6-oxo-1,6-dihydropyridazin-4-yl)pyrrolidin-3-yl ((1r,4R)-4-((4-methylpiperazine)-1-sulfonamido)cyclohexyl) carbamate], the IC50 (at human CD73; in experiment [1]) was 0.001 to 10 µM each time.
For `CC(C)NS(=O)(=O)N[C@H]1CC[C@H](NC(=O)O[C@@H]2CCN(c3cn[nH]c(=O)c3Cl)C2)CC1` [P-0311, (R)-1-(5-chloro-6-oxo-1,6-dihydropyridazin-4-yl)pyrrolidin-3-yl ((1r,4R)-4-((N-isopropylsulfamoyl)amino)cyclohexyl)carbamate], the IC50 (at human CD73; in experiment [1]) was 0.001 to 10 µM in each case.
As to `CNS(=O)(=O)N[C@H]1CC[C@H](NC(=O)O[C@@H]2CCN(c3cn[nH]c(=O)c3Cl)C2)CC1` [P-0312, (R)-1-(5-chloro-6-oxo-1,6-dihydropyridazin-4-yl)pyrrolidin-3-yl ((1r,4R)-4-((N-methylsulfamoyl)amino)cyclohexyl)carbamate], the IC50 (on human CD73; in experiment [1]) was 0.001 to 10 µM each time.
In the case of `CC1(S(=O)(=O)N[C@H]2CC[C@H](NC(=O)O[C@@H]3CCN(c4cn[nH]c(=O)c4Cl)C3)CC2)CC1` [P-0313, (R)-1-(5-chloro-6-oxo-1,6-dihydropyridazin-4-yl)pyrrolidin-3-yl ((1r,4R)-4-((1-methylcyclopropane)-1-sulfonamido)cyclohexyl) carbamate], the IC50 (at human CD73; in experiment [1]) was 0.001 to 10 µM throughout.
For the compound `O=C(N[C@H]1CC[C@H](NC(=O)c2ccccc2F)CC1)O[C@@H]1CCN(c2cn[nH]c(=O)c2Cl)C1` [P-0314, (R)-1-(5-chloro-6-oxo-1,6-dihydropyridazin-4-yl)pyrrolidin-3-yl ((1r,4R)-4-(2-fluorobenzamido)cyclohexyl) carbamate], the IC50 (at human CD73; in experiment [1]) was 0.001 to 10 µM throughout.
For the compound `O=C(N[C@H]1CC[C@H](NC(=O)c2cccc(F)c2)CC1)O[C@@H]1CCN(c2cn[nH]c(=O)c2Cl)C1` [P-0315, (R)-1-(5-chloro-6-oxo-1,6-dihydropyridazin-4-yl)pyrrolidin-3-yl ((1r,4R)-4-(3-fluorobenzamido)cyclohexyl) carbamate], the IC50 (on human CD73; in experiment [1]) was 0.001 to 10 µM each time.
With `Cc1ccccc1C(=O)N[C@H]1CC[C@H](NC(=O)O[C@@H]2CCN(c3cn[nH]c(=O)c3Cl)C2)CC1` [P-0316, (R)-1-(5-chloro-6-oxo-1,6-dihydropyridazin-4-yl)pyrrolidin-3-yl ((1r,4R)-4-(2-methylbenzamido)cyclohexyl) carbamate], the IC50 (at human CD73; in experiment [1]) was 0.001 to 10 µM each time.
In the case of `Cc1cccc(C(=O)N[C@H]2CC[C@H](NC(=O)O[C@@H]3CCN(c4cn[nH]c(=O)c4Cl)C3)CC2)c1` [P-0317, (R)-1-(5-chloro-6-oxo-1,6-dihydropyridazin-4-yl)pyrrolidin-3-yl ((1r,4R)-4-(3-methylbenzamido)cyclohexyl) carbamate], the IC50 (at human CD73; in experiment [1]) was 0.001 to 10 µM in each case.
Consider `O=C(N[C@H]1CC[C@H](NC(=O)c2ccc(C(F)(F)F)nc2)CC1)O[C@@H]1CCN(c2cn[nH]c(=O)c2Cl)C1` [P-0318, (R)-1-(5-chloro-6-oxo-1,6-dihydropyridazin-4-yl)pyrrolidin-3-yl ((1r,4R)-4-(6-(trifluoromethyl)nicotinamido)cyclohexyl)carbamate], for which the IC50 (on human CD73; in experiment [1]) was 0.001 to 10 µM throughout.
`CNC(=O)N[C@H]1CC[C@H](NC(=O)O[C@@H]2CCN(c3cn[nH]c(=O)c3Cl)C2)CC1` [P-0319, (R)-1-(5-chloro-6-oxo-1,6-dihydropyridazin-4-yl)pyrrolidin-3-yl ((1r,4R)-4-(3-methylureido)cyclohexyl) carbamate]: the IC50 (on human CD73; in experiment [1]) was 0.001 to 10 µM throughout.
For the compound `CC(C)NC(=O)N[C@H]1CC[C@H](NC(=O)O[C@@H]2CCN(c3cn[nH]c(=O)c3Cl)C2)CC1` [P-0320, (R)-1-(5-chloro-6-oxo-1,6-dihydropyridazin-4-yl)pyrrolidin-3-yl ((1r,4R)-4-(3-isopropylureido)cyclohexyl) carbamate], the IC50 (on human CD73; in experiment [1]) was 0.001 to 10 µM throughout.
With `Cc1ccc(NC(=O)N[C@H]2CC[C@H](NC(=O)O[C@@H]3CCN(c4cn[nH]c(=O)c4Cl)C3)CC2)cc1` [P-0321, (R)-1-(5-chloro-6-oxo-1,6-dihydropyridazin-4-yl)pyrrolidin-3-yl ((1r,4R)-4-(3-(p-tolyl)ureido)cyclohexyl) carbamate], the IC50 (at human CD73; in experiment [1]) was 0.001 to 10 µM throughout.
Consider `N#Cc1ccc(NC(=O)N[C@H]2CC[C@H](NC(=O)O[C@@H]3CCN(c4cn[nH]c(=O)c4Cl)C3)CC2)cc1` [P-0322, (R)-1-(5-chloro-6-oxo-1,6-dihydropyridazin-4-yl)pyrrolidin-3-yl ((1r,4R)-4-(3-(4-cyanophenyl)ureido)cyclohexyl)carbamate], for which the IC50 (on human CD73; in experiment [1]) was 0.001 to 10 µM each time.
As for `O=C(Nc1ccc(F)cc1F)N[C@H]1CC[C@H](NC(=O)O[C@@H]2CCN(c3cn[nH]c(=O)c3Cl)C2)CC1` [P-0323, (R)-1-(5-chloro-6-oxo-1,6-dihydropyridazin-4-yl)pyrrolidin-3-yl ((1r,4R)-4-(3-(2,4-difluorophenyl)ureido)cyclohexyl)carbamate], the IC50 (at human CD73; in experiment [1]) was 0.001 to 10 µM each time.

Values taken from patent US12509444B2, “Compounds and methods for CD73 modulation and indications therefor” (Plexxikon Inc., priority 2019, dated 2025).
